A short description of this series: recombinant barcode read abundance after kanamycin selection (control-corrected) (log10(CPM+1)); higher = more efficient recombination; sequences stand for … in AGTGCAGAGAAAATCGGCCAGTTTTCTCTGCCTGCAGTCCGCATGCCGT…AGATTTATGCAGCGGACTGCCTTTCTCCCAAAGTGATAAACCGGACAGTATCATGGACCGGTTTTCCCGGTAATCCGTATTTGCAAGGTTGGTTTCACT; site = the 11-nt target. The method, boiled down: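 Targets and IS621 bridge RNA target-binding loops were paired in oligos, each with a promoter, a barcode and the J23119-driven first 104 bridge RNA bases. A vector carrying the remaining 73 bp and a T7-inducible recombinase received these by Gibson cloning, and the pool was co-electroporated into E. coli with a donor plasmid. Duplicate plates contained chloramphenicol/ampicillin LB agar (control) or chloramphenicol/ampicillin/kanamycin with 0.1 mM IPTG. Recombination efficiency comes from averaged, control-corrected counts per million of recombinant-junction barcodes, reported as log10(CPM+1).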
For “GACGGATCTTGGGTTCTAACCTGTTGCAT (site GACGGATCTAC)”, the “recombinant barcode read abundance (log10)” value was 0.269.
For the sequence “GACGGATCTTGGGTTCTAACCTGTTGCAT (site GACGGATCTAG)”, the “recombinant barcode read abundance (log10)” value came out at 0.233.
The value for “GACGGATCTTGGGTTCTAACCTGTTGCAT (site GACGGATCTAT)” was 1.09; that for “GACGGATCTTGGGTTCTAACCTGTTGCGT (site GACGGATCTAA)” was 0.0403; that for “GACGGATCTTGGGTTCTAACCTGTTGCGT (site GACGGATCTAC)” was 0.705.
The value for “GACGGATCTTGGGTTCTAACCTGTTGCGT (site GACGGATCTAG)” was 0.569; that for “GACGGATCTTGGGTTCTAACCTGTTGCGT (site GACGGATCTAT)” was 1.35.
Regarding “GACGGCACTTGGGTTCTAACCTGTTGCCT (site CGGCTACCTCC)”, the “recombinant barcode read abundance (log10)” value was 0.0844.
The value for “GACGGCACTTGGGTTCTAACCTGTTGCCT (site GACGGCACTAG)” was 0.567.
The value for “GACGTGCCTTGGGTTCTAACCTGTTGCCG (site CTTAGTACTAT)” was 0.11.
The figure for “GACGTGCCTTGGGTTCTAACCTGTTGCCG (site GACGTGCCTCG)” is 1.77; for “GACTAAGCTTGGGTTCTAACCTGTTGCGG (site CTGGGGTCTAA)” it is 0.0398.
With “GACTAAGCTTGGGTTCTAACCTGTTGCGG (site GACTAAGCTCC)”, the “recombinant barcode read abundance (log10)” value was determined as 2.39.
Regarding “GACTCTCCTTGGGTTCTAACCTGTTGCAG (site GACTCTCCTCA)”, the “recombinant barcode read abundance (log10)” value amounted to 0.147.
As for “GACTCTCCTTGGGTTCTAACCTGTTGCAG (site GACTCTCCTCT)”, the “recombinant barcode read abundance (log10)” value turned out to be 0.0267.
As to “GACTGAGCTTGGGTTCTAACCTGTTGCGG (site AGACAGTCTTG)”, the “recombinant barcode read abundance (log10)” value worked out at 0.046.
As for “GACTGAGCTTGGGTTCTAACCTGTTGCGG (site GACTGAGCTCC)”, the “recombinant barcode read abundance (log10)” value was determined as 2.26.
The value for “GACTGGGCTTGGGTTCTAACCTGTTGCTG (site GACTGGCCTAA)” was 0.239; that for “GACTGGGCTTGGGTTCTAACCTGTTGCTG (site GACTGGGCTCA)” was 1.58; that for “GACTGTCCTTGGGTTCTAACCTGTTGCGA (site GACCGTCCTTG)” was 0.372.
The figure for “GACTGTCCTTGGGTTCTAACCTGTTGCGA (site GACTGTCCTTC)” is 1.8.
The value for “GACTGTTCTTGGGTTCTAACCTGTTGCCT (site GACTGTTCTAG)” was 0.13.
Turning to “GACTGTTCTTGGGTTCTAACCTGTTGCCT (site GCCTGTTCTAG)”, the “recombinant barcode read abundance (log10)” value was determined as 0.0949.
The figure for “GACTGTTCTTGGGTTCTAACCTGTTGCCT (site GGCTGTTCTAG)” is 0.202; for “GACTGTTCTTGGGTTCTAACCTGTTGCCT (site GTCTGTTCTAG)” it is 0.0588.
As for “GACTTGGCTTGGGTTCTAACCTGTTGCCT (site GACTTGACTAG)”, the “recombinant barcode read abundance (log10)” value was 0.0256.
The value for “GACTTGGCTTGGGTTCTAACCTGTTGCCT (site GACTTGCCTAG)” was 0.146; that for “GACTTGGCTTGGGTTCTAACCTGTTGCCT (site GACTTGGCTAG)” was 0.146.
Regarding “GACTTGGCTTGGGTTCTAACCTGTTGCCT (site GACTTGTCTAG)”, the “recombinant barcode read abundance (log10)” value was 0.124.
For the sequence “GAGAAATCTTGGGTTCTAACCTGTTGCCT (site GAGAAATCTAG)”, the “recombinant barcode read abundance (log10)” value was 0.59.
The value for “GAGAAATCTTGGGTTCTAACCTGTTGCCT (site GAGACATCTAG)” was 0.249.
In the case of “GAGAAATCTTGGGTTCTAACCTGTTGCCT (site GAGAGATCTAG)”, the “recombinant barcode read abundance (log10)” value worked out at 0.0526.
The figure for “GAGAAATCTTGGGTTCTAACCTGTTGCCT (site GAGATATCTAG)” is 0.0612; for “GAGAAGTCTTGGGTTCTAACCTGTTGCCT (site GAGAAGTCTAG)” it is 1.93.
Take “GAGAAGTCTTGGGTTCTAACCTGTTGCCT (site GAGCAGTCTAG)”: the “recombinant barcode read abundance (log10)” value turned out to be 0.133.
The figure for “GAGAAGTCTTGGGTTCTAACCTGTTGCCT (site GAGGAGTCTAG)” is 0.115; for “GAGAAGTCTTGGGTTCTAACCTGTTGCCT (site GAGTAGTCTAG)” it is 0.404; for “GAGACAGCTTGGGTTCTAACCTGTTGCCT (site GAAACAGCTAG)” it is 0.367.
The figure for “GAGACAGCTTGGGTTCTAACCTGTTGCCT (site GACACAGCTAG)” is 0.0512; for “GAGACAGCTTGGGTTCTAACCTGTTGCCT (site GAGACAGCTAG)” it is 1.54; for “GAGACAGCTTGGGTTCTAACCTGTTGCCT (site GATACAGCTAG)” it is 0.504.
For “GAGACGGCTTGGGTTCTAACCTGTTGCTT (site GAGACGGCTAA)”, the “recombinant barcode read abundance (log10)” value came to 1.22.
The value for “GAGACGGCTTGGGTTCTAACCTGTTGCTT (site GAGCCGGCTAA)” was 0.193; that for “GAGACGGCTTGGGTTCTAACCTGTTGCTT (site GAGGCGGCTAA)” was 0.424; that for “GAGACGGCTTGGGTTCTAACCTGTTGCTT (site GAGTCGGCTAA)” was 0.206.
In the case of “GAGACTCCTTGGGTTCTAACCTGTTGCAC (site GAGACTCCTCT)”, the “recombinant barcode read abundance (log10)” value was 0.437.
The value for “GAGACTCCTTGGGTTCTAACCTGTTGCAC (site GAGACTCCTGT)” was 1.17; that for “GAGACTCCTTGGGTTCTAACCTGTTGCAG (site GAGACTCCTCT)” was 0.956.
The figure for “GAGACTCCTTGGGTTCTAACCTGTTGCAG (site GAGACTCCTGT)” is 0.509; for “GAGACTCCTTGGGTTCTAACCTGTTGCTA (site GAGACTCCTTA)” it is 0.392.
The value for “GAGACTCCTTGGGTTCTAACCTGTTGCTA (site GCGACTCCTTA)” was 0.0503; that for “GAGACTGCTTGGGTTCTAACCTGTTGCCT (site GAAACTGCTAG)” was 0.291.
Take “GAGACTGCTTGGGTTCTAACCTGTTGCCT (site GACACTGCTAG)”: the “recombinant barcode read abundance (log10)” value was determined as 0.068.
For the sequence “GAGACTGCTTGGGTTCTAACCTGTTGCCT (site GAGACTGCTAG)”, the “recombinant barcode read abundance (log10)” value came to 0.865.
Take “GAGACTGCTTGGGTTCTAACCTGTTGCCT (site GATACTGCTAG)”: the “recombinant barcode read abundance (log10)” value was determined as 0.0802.
“GAGAGCACTTGGGTTCTAACCTGTTGCCA (site GAGAGCACTTG)”: the “recombinant barcode read abundance (log10)” value is 1.23.
The figure for “GAGAGCACTTGGGTTCTAACCTGTTGCCA (site GAGGGCACTTG)” is 0.329; for “GAGAGGACTTGGGTTCTAACCTGTTGCTT (site GAGAGGACTAA)” it is 1.86.
The figure for “GAGAGGACTTGGGTTCTAACCTGTTGCTT (site GATAGAACTAA)” is 0.0753; for “GAGATATCTTGGGTTCTAACCTGTTGCCT (site GAGAAATCTAG)” it is 0.223; for “GAGATATCTTGGGTTCTAACCTGTTGCCT (site GAGACATCTAG)” it is 0.339.
The value for “GAGATATCTTGGGTTCTAACCTGTTGCCT (site GAGAGATCTAG)” was 0.217; that for “GAGATATCTTGGGTTCTAACCTGTTGCCT (site GAGATATCTAG)” was 2.07; that for “GAGATCCCTTGGGTTCTAACCTGTTGCCA (site GAGATCCCTTG)” was 1.22.
For “GAGATCCCTTGGGTTCTAACCTGTTGCCA (site GGGGTCCCTTG)”, the “recombinant barcode read abundance (log10)” value was 0.235.
The value for “GAGATCCCTTGGGTTCTAACCTGTTGCTA (site GAGATCCCTCA)” was 0.427.
The figure for “GAGATCCCTTGGGTTCTAACCTGTTGCTA (site GAGATCCCTTA)” is 1.93; for “GAGATCCCTTGGGTTCTAACCTGTTGCTG (site GAGATCCCTCA)” it is 2.37.
The value for “GAGATCCCTTGGGTTCTAACCTGTTGCTG (site GAGATCCCTTA)” was 0.188.
On to “GAGATGACTTGGGTTCTAACCTGTTGCGG (site GAGACGACTCG)”, for which the “recombinant barcode read abundance (log10)” value came out at 0.0565.
For the sequence “GAGATGACTTGGGTTCTAACCTGTTGCGG (site GAGATGACTCC)”, the “recombinant barcode read abundance (log10)” value worked out at 2.29.
The value for “GAGCAACCTTGGGTTCTAACCTGTTGCCG (site GAGCAACCTCG)” was 1.07; that for “GAGCAACCTTGGGTTCTAACCTGTTGCCG (site GAGCCACCTTG)” was 0.017; that for “GAGCAGACTTGGGTTCTAACCTGTTGCCT (site GAGCAGACTAG)” was 0.931.
The figure for “GAGCAGACTTGGGTTCTAACCTGTTGCCT (site GAGCCGACTAG)” is 0.146; for “GAGCAGACTTGGGTTCTAACCTGTTGCCT (site GAGCGGACTAG)” it is 0.235; for “GAGCAGACTTGGGTTCTAACCTGTTGCCT (site GAGCTGACTAG)” it is 0.631.

The values are drawn from the supplement of paper PMC11208160.
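Further: IS621 recombinase and bridge RNA in Escherichia coli cells.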
